Like-named read-outs stand apart in the source and are kept apart here.
Assays:
Plasmopara viticola = assay: Greenhouse test against downy mildew, preventive application to vine leaves (Example 4); type: in vivo, Plasmopara viticola on vine plants, cv. Dolcetto; conditions: for pest or weed control at 0.2 ppm: 0.20 ppm
Protocol: Determination of the fungicidal efficacy against downy mildew (Plasmopara viticola) in preventive application to vine leaves in greenhouse.
Leaves of vine plants, cv. Dolcetto, grown up in pots in conditioned environment at 25° C. and 60% relative humidity, were sprayed on both sides with hydroacetonic solutions (20% of acetone by volume) of the compounds under testing, the potassium phosphite (K2HPO3+KH2PO3) aqueous solutions and the mixtures of both components.
Seven days after the treatments, the leaves of treated plants and untreated controls were sprayed on the lower surface with aqueous suspension of Plasmopara viticola conidia (200.000 conidia/ml); after beeing kept for 24 h at 21° C. in environment moist at saturation, the plants were transfered to other conditioned environment at 70% relative humidity and 21° C. for 7 days.
After this period the degree of infection was evaluated and the activity of the compounds tested was expressed as % of disease control in comparison to the untreated controls: 100=healty plant; 0=completely infected plant.
In tables 6-20 are reported the results obtained for the compounds tested alone and in mixture with potassium phosphite at the indicated dosages. When the % disease control value found is higher than the value expected applying the Limpel formula (see Example 3), a synergic effect is verified.

Phytophthora infestans = type: in vivo, Phytophthora infestans on potato plants, Miura variety; conditions: 1400 g/hl active principle; average of 3 tests on potato plants in Great Britain, 2002

N#Cc1c(Cl)c(Cl)c(Cl)c(C#N)c1Cl [chlorothalonil, 1,3-dicyano-2,4,5,6-tetrachlorobenzene]
pest or weed control at 7.5 ppm (Plasmopara viticola; Plasmopara viticola, topical, 168 h, 7.5 ppm, Table 16, read-out: % Disease Control: found): 46%

Cc1ccc(C(C)NC(=O)C(NC(=O)OC(C)C)C(C)C)cc1 (centres unmarked) [iprovalicarb, O-(1-methyl-ethyl)-N-[2-methyl-1-[[[1-(4-methylphenyl)-ethyl]amino]carbonyl]propyl]carbamate]
% Disease Control: found (Plasmopara viticola; 0.45 ppm, Table 9): 50%

COCC(=O)N(c1c(C)cccc1C)[C@H](C)C(=O)OC [mefenoxam, methyl N-(2-methoxyacetyl)-N-2,6-xylyl-R-alaninate]
pest or weed control at 0.1 ppm (Plasmopara viticola; Plasmopara viticola, topical, 168 h, 0.10 ppm, Table 8, read-out: % Disease Control: found): 48%

potassium phosphite (K2HPO3+KH2PO3)
% Disease Control: found (Plasmopara viticola; 60 ppm, inoculation 7 days after treatment): 35% | % disease control leaves (Phytophthora infestans): 23%

COc1ccc(C(=CC(=O)N2CCOCC2)c2ccc(Cl)cc2)cc1OC [dimethomorph, (E,Z)-4-[3-(4-chlorophenyl)-3-(3,4-dimethoxyphenyl)acryloyl]-morpholine]
pest or weed control at 0.45 ppm (Plasmopara viticola; Plasmopara viticola, topical, 168 h, 0.45 ppm, Table 15, read-out: % Disease Control: found): 73%

CO/C=C(/C(=O)OC)c1ccccc1Oc1cc(Oc2ccccc2C#N)ncn1 [azoxystrobin]
% Disease Control: found (Plasmopara viticola; 0.11 ppm, Table 11): 69%

Cc1ccc(-c2c(Cl)nc(C#N)n2S(=O)(=O)N(C)C)cc1 [cyazofamide, 2-cyano-4-chloro-′5-(4-methylphenyl)-1-(N,N-dimethylaminosulfamoyl)-imidazole]
% Disease Control: found (Plasmopara viticola; 15 ppm, Table 14): 68%

COCC(=O)N(c1c(C)cccc1C)C(C)C(=O)OC (centres unmarked) [metalaxyl, methyl N-(2-methoxyacetyl)-N-2,6-xylyl-RS-alaninate]
pest or weed control at 0.2 ppm (Plasmopara viticola; Plasmopara viticola, topical, 168 h, Table 7, read-out: % Disease Control: found): 45%

CC1(c2ccc(Oc3ccccc3)cc2)OC(=O)N(Nc2ccccc2)C1=O (centres unmarked) [famoxadone, 5-methyl-5-(4-phenoxyphenyl)-3-(phenylamino)oxazolidin-2,4-dione]
pest or weed control at 0.45 ppm (Plasmopara viticola; Plasmopara viticola, topical, 168 h, 0.45 ppm, Table 12, read-out: % Disease Control: found): 56%

CCNC(=O)NC(=O)C(C#N)=NOC [cymoxanil, 1-(2-cyano-2-methoxyimino-acetyl)-3-ethyl urea]
pest or weed control at 30 ppm (Plasmopara viticola; Plasmopara viticola, topical, 168 h, 30 ppm, Table 6, read-out: % Disease Control: found): 59%

O=[N+]([O-])c1cc(C(F)(F)F)c(Cl)c([N+](=O)[O-])c1Nc1ncc(C(F)(F)F)cc1Cl [fluazinam, 3-chloro-N-(3-chloro-5-trifluoromethyl-2-pyridyl)-α,α,α-trifluoro-2,6-dinitro-p-toluidine]
pest or weed control at 20 ppm (Plasmopara viticola; Plasmopara viticola, topical, 168 h, 20 ppm, Table 20, read-out: % Disease Control: found): 48%

COCC(=O)N(c1c(C)cccc1C)N1CCOC1=O [oxadixyl, 2-methoxy-N-(2-oxo-1,3-oxazolidin-3-yl)aceto-2′,6′-xylidide]
pest or weed control at 0.2 ppm (Plasmopara viticola; Plasmopara viticola, topical, 168 h, Table 18, read-out: % Disease Control: found): 49%

CC(C)OC(=O)N[C@H](C(=O)N[C@H](C)c1nc2ccc(F)cc2s1)C(C)C [benthiavalicarb]
pest or weed control at 0.25 ppm (Plasmopara viticola; Plasmopara viticola, topical, 168 h, 0.25 ppm, Table 10, read-out: % Disease Control: found): 47%

Source: US20060159772A1, “Fungicidal compositions” (priority 2002, published 2006)
